Measured values: PubChem BioAssay AID248 (DTP/NCI, 2004)
Several values for one entry are separate records, joined by “and”; a condition that tells them apart may be missing. Identical values can stand only once. Toxic doses and inconclusive results are not listed. No stated cut-off is given here; in the data, active means T/C of 150% or more; inactive means T/C below 125%.

Tested on: L1210 leukemia ip in BDF1 mice, survival T/C
Experiment: NCI In Vivo Anticancer Drug Screen. Data for tumor model L1210 Leukemia (intraperitoneal) in B6D2F1 (BDF1) mice
Conditions: endpoint: mean survival time, higher = longer survival
How it was run: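 Tumor was transplanted into mice, which were then dosed with test compound or vehicle alone. Survival was recorded for each group, and the treated figure was expressed relative to the control figure.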

[1] = dose: 100.0 mg/kg/injection, schedule: Q01DX009 (ip), vehicle: saline with Tween-80
[2] = dose: 100.0 mg/kg/injection, schedule: Q04DX003 (ip), vehicle: saline with Tween-80
[3] = dose: 200.0 mg/kg/injection, schedule: Q01DX009 (ip), vehicle: saline with Tween-80
[4] = dose: 200.0 mg/kg/injection, schedule: Q04DX003 (ip), vehicle: saline with Tween-80
[5] = dose: 400.0 mg/kg/injection, schedule: Q01DX009 (ip), vehicle: saline with Tween-80
[6] = dose: 400.0 mg/kg/injection, schedule: Q04DX003 (ip), vehicle: saline with Tween-80
[7] = dose: 100.0 mg/kg/injection, schedule: Q01DX009 (ip), vehicle: Klucel (hydroxypropylcellulose) (HPC)
[8] = dose: 100.0 mg/kg/injection, schedule: Q04DX003 (ip), vehicle: Klucel (hydroxypropylcellulose) (HPC)
[9] = dose: 200.0 mg/kg/injection, schedule: Q04DX003 (ip), vehicle: Klucel (hydroxypropylcellulose) (HPC)
[10] = dose: 400.0 mg/kg/injection, schedule: Q04DX003 (ip), vehicle: Klucel (hydroxypropylcellulose) (HPC)
[11] = dose: 100.0 mg/kg/injection, schedule: Q01DX001 (ip), vehicle: saline with Tween-80
[12] = dose: 200.0 mg/kg/injection, schedule: Q01DX001 (ip), vehicle: saline with Tween-80
[13] = dose: 400.0 mg/kg/injection, schedule: Q01DX001 (ip), vehicle: saline with Tween-80
[14] = dose: 200.0 mg/kg/injection, schedule: Q01DX009 (ip), vehicle: Klucel (hydroxypropylcellulose) (HPC)
[15] = dose: 400.0 mg/kg/injection, schedule: Q01DX009 (ip), vehicle: Klucel (hydroxypropylcellulose) (HPC)
[16] = dose: 5.0 mg/kg/injection, schedule: Q01DX001 (ip), vehicle: saline
[17] = dose: 10.0 mg/kg/injection, schedule: Q01DX001 (ip), vehicle: saline
[18] = dose: 20.0 mg/kg/injection, schedule: Q01DX001 (ip), vehicle: saline
[19] = dose: 40.0 mg/kg/injection, schedule: Q01DX001 (ip), vehicle: saline
[20] = dose: 100.0 mg/kg/injection, schedule: Q01DX001 (ip), vehicle: other
[21] = dose: 200.0 mg/kg/injection, schedule: Q01DX001 (ip), vehicle: other
[22] = dose: 50.0 mg/kg/injection, schedule: Q01DX001 (ip), vehicle: saline
[23] = dose: 100.0 mg/kg/injection, schedule: Q01DX001 (ip), vehicle: saline
[24] = dose: 200.0 mg/kg/injection, schedule: Q01DX001 (ip), vehicle: saline
[25] = dose: 400.0 mg/kg/injection, schedule: Q01DX001 (ip), vehicle: saline

Measured: T/C

CCOC(=O)CSC
inactive: [1] 99 % of control | [2] 101 % of control | [3] 94 % of control | [4] 106 % of control | [5] 100 % of control | [6] 98 % of control

CN(CCO)c1c(Cl)c(=O)oc2ccc(Cl)cc12
inactive: [2] 90 % of control | [4] 92 % of control | [6] 89 % of control

CN(C)N=Nc1ccccc1Cl
inactive: dose: 25.0 mg/kg/injection, schedule: Q01DX009 (ip), vehicle: saline with Tween-80 106 % of control | dose: 50.0 mg/kg/injection, schedule: Q01DX009 (ip), vehicle: saline with Tween-80 120 % of control | dose: 50.0 mg/kg/injection, schedule: Q04DX003 (ip), vehicle: Klucel (hydroxypropylcellulose) (HPC) 97 % of control | [7] 95 % of control | [1] 123 % of control | [8] 102 % of control and 103 % of control | [9] 103 % of control and 111 % of control | [10] 113 % of control

C[C-]=O.C[C-]=O.[Br][Pd][Br]
inactive: [11] 97 % of control | [12] 100 % of control | [13] 107 % of control

O=C1N/C(=N\OCc2ccccc2Cl)CC(NOCc2ccccc2Cl)N1 (centres undefined)
inactive: [2] 91 % of control | [4] 97 % of control | [6] 95 % of control

COC(=O)C12N=NN(c3ccccc3)C1(C(=O)OC)C1CCC2C1 (centres undefined)
inactive: [1] 106 % of control | [8] 96 % of control | [3] 94 % of control | [9] 102 % of control | [5] 98 % of control | [10] 97 % of control

O=C(NC1CCCCC1)N(O)C12CC3CC(CC(C3)C1)C2
inactive: [11] 108 % of control | [12] 92 % of control | [13] 95 % of control

Cc1cc(O)c(C)c(C)c1N=Nc1ccccc1
inactive: [1] 101 % of control | dose: 100.0 mg/kg/injection, schedule: Q04DX002 (ip), vehicle: saline with Tween-80 108 % of control | [3] 89 % of control | dose: 200.0 mg/kg/injection, schedule: Q04DX002 (ip), vehicle: saline with Tween-80 90 % of control | [5] 95 % of control | dose: 400.0 mg/kg/injection, schedule: Q04DX002 (ip), vehicle: saline with Tween-80 93 % of control

CN(C)C=Nc1cc2c(cc1Br)-c1ccccc1C2=O
inactive: [7] 101 % of control | [14] 95 % of control | [15] 93 % of control

CCOC(C)C(/C=N/NC(N)=S)=NNC(N)=S (centres undefined)
inactive: dose: 15.0 mg/kg/injection, schedule: Q01DX010 (ip), vehicle: saline 95 % of control | dose: 15.0 mg/kg/injection, schedule: Q01DX Z (ip), vehicle: carboxymethylcellulose (CMC) 101 % of control | dose: 30.0 mg/kg/injection, schedule: Q01DX010 (ip), vehicle: saline 89 % of control | dose: 30.0 mg/kg/injection, schedule: Q01DX Z (ip), vehicle: carboxymethylcellulose (CMC) 95 % of control | dose: 60.0 mg/kg/injection, schedule: Q01DX010 (ip), vehicle: saline 92 % of control | dose: 60.0 mg/kg/injection, schedule: Q01DX Z (ip), vehicle: carboxymethylcellulose (CMC) 100 % of control and 102 % of control | dose: 60.0 mg/kg/injection, schedule: Q01DX Z (oral), vehicle: carboxymethylcellulose (CMC) 100 % of control | dose: 120.0 mg/kg/injection, schedule: Q01DX Z (ip), vehicle: carboxymethylcellulose (CMC) 93 % of control and 103 % of control | dose: 120.0 mg/kg/injection, schedule: Q01DX Z (oral), vehicle: carboxymethylcellulose (CMC) 106 % of control | dose: 240.0 mg/kg/injection, schedule: Q01DX Z (oral), vehicle: carboxymethylcellulose (CMC) 93 % of control

O=C(c1ccccc1)c1c2ccccc2c(Br)c2ccccc12
inactive: [7] 97 % of control | [8] 100 % of control | [14] 96 % of control | [9] 95 % of control | [15] 91 % of control | [10] 89 % of control

O=C1C(Br)=C(c2ccccc2)C(=O)C(Br)=C1c1ccccc1
inactive: dose: 100.0 mg/kg/injection, schedule: Q01DX001 (ip), vehicle: carboxymethylcellulose (CMC) 90 % of control | dose: 200.0 mg/kg/injection, schedule: Q01DX001 (ip), vehicle: carboxymethylcellulose (CMC) 92 % of control | dose: 400.0 mg/kg/injection, schedule: Q01DX001 (ip), vehicle: carboxymethylcellulose (CMC) 97 % of control

CCS(=O)(=O)/C=C/c1ccco1
inactive: dose: 12.5 mg/kg/injection, schedule: Q04DX003 (ip), vehicle: carboxymethylcellulose (CMC) 98 % of control | dose: 25.0 mg/kg/injection, schedule: Q04DX003 (ip), vehicle: carboxymethylcellulose (CMC) 95 % of control

O=c1cc(-c2ccccc2)sc(-c2ccccc2)c1
inactive: dose: 75.0 mg/kg/injection, schedule: Q04DX003 (ip), vehicle: saline 100 % of control | [8] 103 % of control | dose: 150.0 mg/kg/injection, schedule: Q04DX003 (ip), vehicle: saline 95 % of control | [9] 105 % of control | dose: 300.0 mg/kg/injection, schedule: Q04DX003 (ip), vehicle: saline 92 % of control | [10] 103 % of control

CCOP(=O)(OCC)O/N=C(/c1ccccc1)C(C)C
inactive: [16] 98 % of control | [17] 98 % of control | [18] 93 % of control | [19] 100 % of control

Cc1ccc2c(ccc3c[n+]4c5ccccc5ccc4n32)c1
inactive: [16] 97 % of control | [17] 100 % of control | [18] 101 % of control | [19] 117 % of control

Cc1cc(O)c(C)c2c1CC[C@H]1[C@@H]2OC(=O)[C@@H]1C
inactive: [20] 98 % of control | [21] 92 % of control | dose: 400.0 mg/kg/injection, schedule: Q01DX001 (ip), vehicle: other 97 % of control

OCC1SC(n2cnc3c(=S)nc[nH]c32)C(O)C1O (centres undefined)
inactive: dose: 200.0 mg/kg/injection, schedule: Q01DX005 (ip), vehicle: saline 103 % of control

CCC(C)C(CCCCN(C)C)(CNC(=O)CN(CC)CC)c1cccc2ccccc12 (centres undefined)
inactive: dose: 100.0 mg/kg/injection, schedule: Q01DX009 (ip), vehicle: saline 99 % of control

COc1ccc(/C=N\NC(=O)CCCC(=O)N/N=C/c2ccc(OC)cc2)cc1
inactive: dose: 50.0 mg/kg/injection, schedule: Q01DX001 (ip), vehicle: other 93 % of control | [20] 88 % of control | [21] 90 % of control

C(=C\C[n+]1ccccc1)/C[n+]1ccccc1
inactive: [22] 106 % of control | [23] 112 % of control | [24] 106 % of control

NC(=S)N/N=C/c1cccc(/C=N/NC(N)=S)c1
inactive: [22] 98 % of control | [23] 93 % of control | [24] 93 % of control | [25] 93 % of control

CS(=O)(=O)OCCN(CCOS(C)(=O)=O)c1ccc([N+](=O)[O-])c(C(F)(F)F)c1
inactive: [22] 94 % of control | [23] 96 % of control | [24] 96 % of control | [25] 94 % of control

COc1ccccc1[As](=O)(O)CC(O)COc1ccccc1 (centres undefined)
inactive: dose: 25.0 mg/kg/injection, schedule: Q04DX003 (ip), vehicle: saline with Tween-80 91 % of control

CSc1ccc(C(=O)NN)cc1
inactive: [22] 101 % of control | [23] 101 % of control | [24] 101 % of control | [25] 104 % of control

CCC(C)C(CCN1CCCCC1)(CNC(=O)CN(CC)CC)Cc1cccc2ccccc12 (centres undefined)
inactive: dose: 12.5 mg/kg/injection, schedule: Q04DX003 (ip), vehicle: saline 101 % of control | dose: 25.0 mg/kg/injection, schedule: Q04DX003 (ip), vehicle: saline 103 % of control | dose: 50.0 mg/kg/injection, schedule: Q04DX003 (ip), vehicle: saline 98 % of control

O=C(NCCCCCCNC(=O)Nc1cccc(C(F)(F)F)c1)Nc1cccc(C(F)(F)F)c1
inactive: [7] 97 % of control | [14] 92 % of control | [15] 92 % of control

O=C(COc1ccc(Cl)cc1Cl)Nc1ccccc1[N+](=O)[O-]
inactive: dose: 100.0 mg/kg/injection, schedule: Q04DX002 (ip), vehicle: saline 92 % of control | dose: 200.0 mg/kg/injection, schedule: Q04DX002 (ip), vehicle: saline 92 % of control | dose: 400.0 mg/kg/injection, schedule: Q04DX002 (ip), vehicle: saline 92 % of control
